The source made the active and inactive calls. No cut-off for these calls is given here.
Assays:
[1] = Toxicity in Kunming mouse assessed as histopathological abnormalities in liver at 4 to 8 mg/kg, sc measured after 24 hrs by H and E staining based analysis; assay type: organism-based; settings: in vivo, dose 4-8 mg/kg
Cell membrane [2] = assay: Induction of cell membrane depolarization in methicillin-resistant Staphylococcus aureus clinical isolate MRSA-16 assessed as fold increase in fluorescence intensity at 32 ug/ml measured every 2 mins for 20 mins by DISC3(5) staining based analysis; assay type: cell membranes; settings: dose 32.0 µg/ml
Staphylococcus aureus [3] = assay: Antibacterial activity against methicillin-resistant Staphylococcus aureus infected in Kunming mouse skin infection model assessed as decrease in bacterial load at 8 mg/kg,sc measured after 24 hrs; assay type: functional
[4] = Toxicity in Kunming mouse assessed as effect on kidney at 4 to 8 mg/kg, sc measured after 24 hrs by H and E staining based analysis; assay type: organism-based; settings: in vivo, dose 4-8 mg/kg
Staphylococcus aureus [5] = assay: Antibacterial activity against methicillin-resistant Staphylococcus aureus clinical isolate MRSA-13 measured after 16 to 18 hrs by CLSI method; assay type: functional; settings: time 16-18 hrs
[6] = Cytotoxicity against human L02 cells assessed as cell viability at 32 ug/ml by CCK-8 method relative to control; assay type: toxicity, cell-based; settings: at 32 µg/mL, read-out: Activity
Cell membrane [7] = assay: Induction of cell membrane permeability in methicillin-resistant Staphylococcus aureus clinical isolate MRSA-16 assessed as decrease in intact cells (Q3 region) at 32 ug/ml incubated for 2 hrs by SYTO 9 and PI staining based flow cytometry analysis (reference value: 99.07%); assay type: cell membranes; design: scale not given: the % may be the effect or the level left; settings: dose 32.0 µg/ml
Cell membrane [8] = assay: Induction of cell membrane permeability in methicillin-resistant Staphylococcus aureus clinical isolate MRSA-16 assessed as decrease in intact cells (Q3 region) at 16 ug/ml incubated for 2 hrs by SYTO 9 and PI staining based flow cytometry analysis (reference value: 99.07%); assay type: cell membranes; design: scale not given: the % may be the effect or the level left; settings: dose 16.0 µg/ml
Staphylococcus aureus [9] = assay: Antibacterial activity against methicillin-resistant Staphylococcus aureus in presence of phosphatidylethanolamine; assay type: functional, organism-based
Cell membrane [10] = assay: Disruption of cell membrane in methicillin-resistant Staphylococcus aureus clinical isolate MRSA-16 assessed as increase in intracellular protein leakage incubated for 4 hrs by microspectrophotometer analysis; assay type: cell membranes
Cell membrane [11] = assay: Induction of cell membrane depolarization in methicillin-resistant Staphylococcus aureus clinical isolate MRSA-16 assessed as increase in fluorescence intensity measured after 10 mins by DISC3(5) staining based analysis; assay type: cell membranes; settings: dose 8-32 µg/ml
Staphylococcus aureus [12] = assay: Antibacterial activity against methicillin-resistant Staphylococcus aureus clinical isolate MRSA-16 measured after 16 to 18 hrs by CLSI method; assay type: functional; settings: time 16-18 hrs
Staphylococcus aureus [13] = assay: Bactericidal activity against Staphylococcus aureus ATCC 29213 assessed as bacterial killing at 4 times MIC measured within 4 to 8 hrs by time kill assay relative to control; assay type: functional; settings: time 4-8 hrs
[14] = Toxicity in Kunming mouse assessed as effect on spleen at 10 mg/kg, sc measured after 24 hrs by H and E staining based analysis; assay type: organism-based; settings: in vivo
Staphylococcus aureus [15] = assay: Antibacterial activity against methicillin-resistant Staphylococcus aureus infected in Kunming mouse skin infection model assessed as smooth dorsal skin at 8 mg/kg,sc measured after 24 hrs; assay type: functional, organism-based
Staphylococcus aureus [16] = assay: Antibacterial activity against methicillin-resistant Staphylococcus aureus clinical isolate MRSA-17 measured after 16 to 18 hrs by CLSI method; assay type: functional; settings: time 16-18 hrs
Cell membrane [17] = assay: Induction of cell membrane permeability in methicillin-resistant Staphylococcus aureus clinical isolate MRSA-16 assessed as increase in damaged cells (Q2 region) at 64 ug/ml incubated for 2 hrs by SYTO 9 and PI staining based flow cytometry analysis (reference value: 0.91%); assay type: cell membranes; settings: dose 64.0 µg/ml
[18] = Toxicity in Kunming mouse assessed as effect on spleen at 4 to 8 mg/kg, sc measured after 24 hrs by H and E staining based analysis; assay type: organism-based; settings: in vivo, dose 4-8 mg/kg
[19] = Toxicity in Kunming mouse assessed as effect on liver at 4 to 8 mg/kg, sc measured after 24 hrs by H and E staining based analysis; assay type: organism-based; settings: in vivo, dose 4-8 mg/kg
Cell membrane [20] = assay: Disruption of cell membrane in methicillin-resistant Staphylococcus aureus clinical isolate MRSA-16 assessed as increase in intracellular DNA leakage incubated for 4 hrs by microspectrophotometer analysis; assay type: cell membranes
[21] = Toxicity in Kunming mouse assessed as survival rate at 80 mg/kg, sc measured after 24 hrs relative to control; assay type: organism-based; settings: in vivo
Staphylococcus aureus [22] = assay: Antibacterial activity against Staphylococcus aureus ATCC 29213 measured after 20 passages for 16 to 18 hrs; assay type: functional; settings: time 16-18 hrs
Staphylococcus aureus [23] = assay: Antibacterial activity against Staphylococcus aureus ATCC 29213 at sub-inhibitory concentration measured after 20 passages for 16 to 18 hrs; assay type: functional, organism-based; settings: time 16-18 hrs
[24] = Toxicity in Kunming mouse assessed as histopathological abnormalities in heart at 4 to 8 mg/kg, sc measured after 24 hrs by H and E staining based analysis; assay type: organism-based; settings: in vivo, dose 4-8 mg/kg
[25] = Toxicity in Kunming mouse assessed as histopathological abnormalities in kidney at 10 mg/kg, sc measured after 24 hrs by H and E staining based analysis; assay type: organism-based; settings: in vivo
[26] = Toxicity in Kunming mouse assessed as redness in back of skin at 20 mg/kg, sc measured after 24 hrs; assay type: organism-based; settings: in vivo
[27] = Toxicity in Kunming mouse assessed as animal death at 5 to 10 mg/kg, sc measured after 24 hrs; assay type: organism-based; settings: in vivo, dose 5-10 mg/kg
[28] = Toxicity in Kunming mouse assessed as survival rate at 40 mg/kg, sc measured after 24 hrs relative to control; assay type: organism-based; settings: in vivo
Staphylococcus aureus [29] = assay: Bactericidal activity against methicillin-resistant Staphylococcus aureus incubated with 3 to 6 hrs compound treated plasma; assay type: functional; settings: time 3-6 hrs
[30] = Toxicity in Kunming mouse assessed as histopathological abnormalities in spleen at 4 to 8 mg/kg, sc measured after 24 hrs by H and E staining based analysis; assay type: organism-based; settings: in vivo, dose 4-8 mg/kg
Staphylococcus aureus [31] = assay: Antibacterial activity against Staphylococcus aureus ATCC 29213 measured after 16 to 18 hrs by CLSI method; assay type: functional; settings: time 16-18 hrs
Staphylococcus aureus [32] = assay: Induction of morphological changes in methicillin-resistant Staphylococcus aureus clinical isolate MRSA-16 assessed as appearance of uneven cell surface at 16 ug/ml incubated for 4 hrs by SEM analysis; assay type: functional, organism-based; settings: dose 16.0 µg/ml
[33] = Toxicity in Kunming mouse assessed as histopathological abnormalities in liver at 10 mg/kg, sc measured after 24 hrs by H and E staining based analysis; assay type: organism-based; settings: in vivo
Cell membrane [34] = assay: Induction of cell membrane permeability in methicillin-resistant Staphylococcus aureus clinical isolate MRSA-16 assessed as dead cells (Q1 region) at 32 ug/ml incubated for 2 hrs by SYTO 9 and PI staining based flow cytometry analysis (reference value: 0.00%); assay type: cell membranes; settings: dose 32.0 µg/ml
Cell membrane [35] = assay: Induction of cell membrane permeability in methicillin-resistant Staphylococcus aureus clinical isolate MRSA-16 assessed as increase in damaged cells (Q2 region) at 4 ug/ml incubated for 2 hrs by SYTO 9 and PI staining based flow cytometry analysis (reference value: 0.91%); assay type: cell membranes; settings: dose 4.0 µg/ml
[36] = Toxicity in Kunming mouse assessed as histopathological abnormalities in kidney at 4 to 8 mg/kg, sc measured after 24 hrs by H and E staining based analysis; assay type: organism-based; settings: in vivo, dose 4-8 mg/kg
Cell membrane [37] = assay: Induction of cell membrane permeability in methicillin-resistant Staphylococcus aureus clinical isolate MRSA-16 assessed as increase in damaged cells (Q2 region) at 32 ug/ml incubated for 2 hrs by SYTO 9 and PI staining based flow cytometry analysis (reference value: 0.91%); assay type: cell membranes; settings: dose 32.0 µg/ml

CCCC[N+](C)(CCCC)CCCCCOc1ccc(C2CC(=O)c3c(OC)cc(OCCCCC[N+](C)(CCCC)CCCC)c(CC=C(C)C)c3O2)cc1.[I-].[I-] (configuration not stated)
Activity [1]: Non-Toxic
fold change (FC) (Cell membrane [2]): 4.5
Activity (Staphylococcus aureus [3]): 5 log10CFU/g
Activity [4]: Non-Toxic
MIC (Staphylococcus aureus [5]): 0.25 µg/mL
viability at 32 ug/ml [6]: 72%
Activity (Cell membrane [7]): 0.02%
Activity (Cell membrane [8]): 1.58%
Activity (Staphylococcus aureus [9]): Active
Activity (Cell membrane [10]): Active
Activity (Cell membrane [11]): Dose-Dependent Effect
MIC (Staphylococcus aureus [12]): 0.25 µg/mL
Activity (Staphylococcus aureus [13]): 100%
Activity [14]: Non-Toxic
Activity (Staphylococcus aureus [15]): Active
MIC (Staphylococcus aureus [16]): 0.25 µg/mL
Activity (Cell membrane [17]): 0.02%
Activity [18]: Non-Toxic
Activity [19]: Non-Toxic
Activity (Cell membrane [20]): Active
survival at 24 h [21]: 40%
MIC (Staphylococcus aureus [22]): 1 µg/mL
Activity (Staphylococcus aureus [23]): inactive
Activity [24]: Non-Toxic
Activity [25]: Non-Toxic
Activity [26]: Toxic
Activity [27]: Non-Toxic
survival at 24 h [28]: 80%
MBC (Staphylococcus aureus [29]): 4 µg/mL
Activity [30]: Non-Toxic
MIC (Staphylococcus aureus [31]): 1 µg/mL
Activity (Staphylococcus aureus [32]): Active
Activity [33]: Non-Toxic
Activity (Cell membrane [34]): 99.2%
Activity (Cell membrane [35]): 38.6%
Activity [36]: Non-Toxic
Activity (Cell membrane [37]): 0.79%

Source: ChEMBL document CHEMBL5505992, “Novel membrane-targeting isoxanthohumol-amine conjugates for combating methicillin-resistant Staphylococcus aureus (MRSA) infections” (Eur J Med Chem, 2024)
